Tests used:
[1] = test system: Rice (cultivar: Nipponbare); assay: Test Example 2: reduction of low-temperature stress by immersion treatment of rice; format: in vivo; settings: 1 ppm in hydroponic solution; 4° C. for 5 days, then 4 days at 25° C.
Description: Rice (cultivar: Nipponbare)
A necessary amount of rice seeds was immersed in an aqueous solution of 1,000 ppm of Benlate, and incubated at 30° C. overnight under dark conditions. The aqueous solution of Benlate was replaced with distilled water, and the seeds were further incubated at 30° C. overnight under dark conditions to stimulate the germination of the seeds. A filter paper was placed on the holes of a plug tray having 406 holes, and the rice seeds obtained after the stimulation of germination were sown on the filter paper. To the rice seeds was added a kimura B solution for hydroponics (see Plant Science 119: 39-47 (1996)) at ½ concentration, and cultivated for 5 days in an artificial weather control room under the following conditions: • temperature: daytime 28° C./night 23° C., humidity: 70%, illuminance: 8,500 lux, and day length: 12 hours. <Compound Treatment> […]
Four (4) days after the cultivation, the overground part of each rice plant in the treated group was taken a photograph, and the area of a green portion in the obtained image data was measured with image analysis software Win ROOF (manufactured by MITANI CORPORATION) to determine the green area of the overground part of the plant. In the treated group, the experiment was performed in duplication and the average value of the green area per individual was calculated. […]

[2] = test system: Tobacco (Nicotiana benthamiana); assay: Test Example 4: reduction of low-temperature stress in hydroponics of tobacco; format: in vivo; settings: 10 ppm in medium; 1.5±1.0° C. for 7 days, then 3 days at 22° C.
Description: Tobacco (Nicotiana benthamiana)
DMSO solutions containing each of the present compounds 1 to 4 at a concentration of 10,000 ppm were prepared. A 1/1,000 volume of each DMSO solution was added to a Murashige-and-Skoog medium (a medium containing 2.3 g of a mixture of salts for Murashige-and-Skoog medium (manufactured by Wako. Pure Chemical Industries, Ltd.), 200 mg of myoinositol (manufactured by Sigma-Aldrich), 2 mg of nicotinic acid (manufactured by Wako Pure Chemical Industries, Ltd.), 2 mg of pyridoxine hydrochloride (manufactured by Wako Pure Chemical Industries, Ltd.), 20 mg of thiamine hydrochloride (manufactured by Wako Pure Chemical Industries, Ltd.), 20 g of sucrose (manufactured by Wako Pure Chemical Industries, Ltd.), 1 g of MES (manufactured by DOJINDO LABORATORIES) in 1 L of water, adjusted to pH 5.8) at ½ concentration to obtain a medium containing the test compound at a concentration of 10 ppm. These media were used in the treated-group.
In a non-treated group, a medium obtained by adding a 1/1,000 volume of DMSO to a Murashige-and-Skoog medium at ½ concentration was used.
The seeds of tobacco (Nicotiana benthamiana) were sown on 5 μL of the medium, and incubated at 22° C. overnight. Thereto was added 45 μL of a medium containing each present compound at a concentration of 10 ppm, and cultivated for 7 days under the conditions of an illuminance of 4,000 lux, a temperature of 22° C. and a day length of 16 hours, thereby treating the seedlings of tobacco (Nicotiana benthamiana) with the test compound.
In the non-treated group, 45 μL of a medium obtained by adding a 1/1,000 volume of DMSO to a Murashige-and-Skoog medium at ½ concentration was added, and treated in the same manner as above.
The seedlings of tobacco (Nicotiana benthamiana) treated with the present compounds were cultivated for 7 days under the conditions of an illuminance of 2,000 lux, a temperature of 1.5±1.0° C., and a day length of 16 hours, thereby subjecting to low-temperature stress treatment.
The plants of tobacco (Nicotiana benthamiana) subjected to low-temperature stress treatment was cultivated for 3 days under the conditions of an illuminance of 4,000 lux, a temperature of 22° C., and a day length of 16 hours, and then the green leaf area of the plants was visually evaluated. Completely dead plant was scored as 0, the plant without low-temperature stress treatment was scored as 5, the green area was rated on a 6-point scale in ⅕ increments, and the score of not less than 1 was regarded as effective in reducing the stress. As a result of visual evaluation, the green leaf area of plants in the treated group, wherein the plants were treated with the present compound 1, 2, 3 or 4 was much larger than that in the non-treated group.

O=C(O)c1cc2cc(C(F)(F)F)ccc2s1 [The present compound 1, 5-(trifluoromethyl)benzo[b]thiophene-2-carboxylic acid]
green area of the overground part of the plant vs non-treated group [1]: much larger | green leaf area of plants (visual evaluation) vs non-treated group [2]: much larger
